The structures appear in SMILES notation. Where “and” joins values, the source holds several entries; their conditions need not be identical. Equal entries are not always repeated. Where only a bound is given, the exact number is not on record here.

A word on the IC50: it is the concentration needed to halve the response being measured. By viability, T/C is commonly meant the ratio of treated to control.

The test system of the test is 616215-338-R-J1-PDC complex spheroid growth, % test/control. As to the kind of experiment: Anticancer human tumor 616215-338-R-J1-PDC patient-derived colon adenocarcinoma cell line growth inhibition [Asc]. The conditions noted are these: for viability, T/C: stronger effect = lower value. The method, boiled down: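 Tumor cells were grown as multicellular spheroids with stromal HUVEC and mesenchymal stem cells and treated singly or in combination. Concentrations fell in half-log steps from the clinical Cmax, or from 10 microM where none was known.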

The mark [1] stands for this setting: curve of first compound, second compound 0.1 µM.
Setting [2] is: curve of first compound, second compound 0.316 µM.
Where [3] appears, read: curve of first compound, second compound 1 µM.
Setting [4] is: curve of first compound, second compound 3.16 µM.
[5] abbreviates: curve of first compound, second compound 10 µM.
Setting [6] is: second compound 0.1 µM, first compound 0.0316 µM.
Where [7] appears, read: second compound 0.1 µM, first compound 0.1 µM.
The mark [8] stands for this setting: second compound 0.1 µM, first compound 0.316 µM.
[9] abbreviates: second compound 0.1 µM, first compound 1 µM.
[10] abbreviates: second compound 0.316 µM, first compound 0.0316 µM.
The mark [11] stands for this setting: second compound 0.316 µM, first compound 0.1 µM.
Setting [12] is: second compound 0.316 µM, first compound 0.316 µM.
[13] abbreviates: second compound 0.316 µM, first compound 1 µM.
[14] abbreviates: second compound 1 µM, first compound 0.0316 µM.
The mark [15] stands for this setting: second compound 1 µM, first compound 0.1 µM.
[16] abbreviates: second compound 1 µM, first compound 0.316 µM.
The mark [17] stands for this setting: second compound 1 µM, first compound 1 µM.
Where [18] appears, read: second compound 3.16 µM, first compound 0.0316 µM.
[19] abbreviates: second compound 3.16 µM, first compound 0.1 µM.
Setting [20] is: second compound 3.16 µM, first compound 0.316 µM.
The mark [21] stands for this setting: second compound 3.16 µM, first compound 1 µM.
Where [22] appears, read: second compound 10 µM, first compound 0.0316 µM.
[23] abbreviates: second compound 10 µM, first compound 0.1 µM.
Setting [24] is: second compound 10 µM, first compound 0.316 µM.
Setting [25] is: second compound 10 µM, first compound 1 µM.
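Further: spheroids exposed to agents for seven days before readout.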
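Wherever viability, T/C is given: 100% = DMSO vehicle control viability.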

As to `C=CC(=O)N1CCN(c2nc(=O)n(-c3c(C)ccnc3C(C)C)c3nc(-c4c(O)cccc4F)c(F)cc23)C(C)C1` (centres undefined) + Cc1c(S(C)(=O)=O)c(-c2cc(F)cc(N3CCN(c4ccc(NS(=O)(=O)c5ccc(NC(CCN6CCC(C(=O)OCCCP(=O)(O)O)CC6)CSc6ccccc6)c(S(=O)(=O)C(F)(F)F)c5)cc4)CC3)c2)c(-c2ccc(Cl)cc2)n1C(C)C, the half-inhibitory concentration (IC50) under setting [1] is above 10000 nM; the 50% inhibitory concentration (IC50) under setting [2] was above 10000 nM; the half-maximal inhibitory concentration (IC50) under setting [3] stood at 2350 nM; the concentration for half-maximal inhibition (IC50) under setting [4] was below 31.6 nM; the IC50 under setting [5] was below 31.6 nM. Also, the viability, T/C by setting is: under setting [6], 87.5%; under setting [7], 89.8%; under setting [8], 90.4%; under setting [9], 92.9%; (second compound 0.1 µM, first compound 3.16 µM) 87.5%; (second compound 0.1 µM, first compound 10 µM) 88.3%. For the same compound, the viability, T/C by setting is: under setting [10], 87.7%; under setting [11], 86.9%; under setting [12], 84.5%; under setting [13], 92.1%; (second compound 0.316 µM, first compound 3.16 µM) 83.4%; (second compound 0.316 µM, first compound 10 µM) 64.4%. The viability, T/C by setting is: under setting [14], 67.6%; under setting [15], 74.5%; under setting [16], 68%; under setting [17], 61.6%; (second compound 1 µM, first compound 3.16 µM) 45.9%; (second compound 1 µM, first compound 10 µM) 42%. The viability, T/C runs as follows: under setting [18], 36%; under setting [19], 40.6%; under setting [20], 37.9%; under setting [21], 30.2%; (second compound 3.16 µM, first compound 3.16 µM) 22.3%; (second compound 3.16 µM, first compound 10 µM) 17.7%. Also, the viability, T/C was 24.9% under setting [22]; 26.2% under setting [23]; 21.9% under setting [24]; 20% under setting [25]; 17.5% (second compound 10 µM, first compound 3.16 µM); 5.58% (second compound 10 µM, first compound 10 µM).

Take `O=C(c1ccc(F)c(F)c1Nc1ccc(I)cc1F)N1CC(O)([C@@H]2CCCCN2)C1` + Cc1c(S(C)(=O)=O)c(-c2cc(F)cc(N3CCN(c4ccc(NS(=O)(=O)c5ccc(NC(CCN6CCC(C(=O)OCCCP(=O)(O)O)CC6)CSc6ccccc6)c(S(=O)(=O)C(F)(F)F)c5)cc4)CC3)c2)c(-c2ccc(Cl)cc2)n1C(C)C: the IC50 runs as follows: under setting [1], 64.4 nM; under setting [2], 58.4 nM; under setting [3], 38.3 nM; under setting [4], below 3.16 nM; under setting [5], below 3.16 nM. Moreover, the viability, T/C (second compound 0.1 µM, first compound 0.00316 µM) was 92.4%; the viability, T/C (second compound 0.1 µM, first compound 0.01 µM) is 91.7%; the viability, T/C under setting [6] is 79.5%; the viability, T/C under setting [7] is 32%; the viability, T/C under setting [8] is 1.51%; the viability, T/C under setting [9] was 0.8%. The viability, T/C is, setting by setting: (second compound 0.316 µM, first compound 0.00316 µM) 92.8%; (second compound 0.316 µM, first compound 0.01 µM) 91.9%; under setting [10], 79.3%; under setting [11], 24.4%; under setting [12], 0.48%; under setting [13], 0.95%. Besides, the viability, T/C by setting is: (second compound 1 µM, first compound 0.00316 µM) 68%; (second compound 1 µM, first compound 0.01 µM) 70.4%; under setting [14], 56%; under setting [15], 17.4%; under setting [16], 0.25%; under setting [17], 2.24%. In addition, the viability, T/C was 39.5% (second compound 3.16 µM, first compound 0.00316 µM); 34.9% (second compound 3.16 µM, first compound 0.01 µM); 27.3% under setting [18]; 2.89% under setting [19]; 0.11% under setting [20]; 0.23% under setting [21]. Besides, the viability, T/C by setting is: (second compound 10 µM, first compound 0.00316 µM) 25.1%; (second compound 10 µM, first compound 0.01 µM) 21.5%; under setting [22], 14.2%; under setting [23], 0.19%; under setting [24], 0.18%; under setting [25], 0.36%.

`Cc1nc(N2CCC3(CC2)COC(C)C3N)c(CO)nc1Sc1ccnc(N)c1Cl` (centres undefined) + CCN1C(C(=O)NC23CCC(C(=O)O)(CC2)CC3)C(c2cccc(Cl)c2F)C2(C(=O)Nc3cc(Cl)ccc32)C12CCCCC2: the IC50 (curve of first compound, second compound 0.03 µM) is above 3000 nM; the concentration for half-maximal inhibition (IC50) (curve of first compound, second compound 0.0949 µM) is above 3000 nM; the half-inhibitory concentration (IC50) (curve of first compound, second compound 0.3 µM) is 303 nM; the IC50 (curve of first compound, second compound 0.949 µM) came to 338 nM; the IC50 (curve of first compound, second compound 3 µM) was 40.3 nM. Besides, the viability, T/C runs as follows: (second compound 0.03 µM, first compound 0.00949 µM) 99.4%; (second compound 0.03 µM, first compound 0.03 µM) 102%; (second compound 0.03 µM, first compound 0.0949 µM) 98.4%; (second compound 0.03 µM, first compound 0.3 µM) 91.8%; (second compound 0.03 µM, first compound 0.949 µM) 86.3%; (second compound 0.03 µM, first compound 3 µM) 74.4%. The viability, T/C is, setting by setting: (second compound 0.0949 µM, first compound 0.00949 µM) 101%; (second compound 0.0949 µM, first compound 0.03 µM) 89.2%; (second compound 0.0949 µM, first compound 0.0949 µM) 84.1%; (second compound 0.0949 µM, first compound 0.3 µM) 87.2%; (second compound 0.0949 µM, first compound 0.949 µM) 80.5%; (second compound 0.0949 µM, first compound 3 µM) 64.7%. In addition, the viability, T/C (second compound 0.3 µM, first compound 0.00949 µM) is 69.8%; the viability, T/C (second compound 0.3 µM, first compound 0.03 µM) was 65.6%; the viability, T/C (second compound 0.3 µM, first compound 0.0949 µM) was 65.1%; the viability, T/C (second compound 0.3 µM, first compound 0.3 µM) is 49.4%; the viability, T/C (second compound 0.3 µM, first compound 0.949 µM) was 39.2%; the viability, T/C (second compound 0.3 µM, first compound 3 µM) is 35%. Further, the viability, T/C was 65.9% (second compound 0.949 µM, first compound 0.00949 µM); 65% (second compound 0.949 µM, first compound 0.03 µM); 66.6% (second compound 0.949 µM, first compound 0.0949 µM); 48.3% (second compound 0.949 µM, first compound 0.3 µM); 37.7% (second compound 0.949 µM, first compound 0.949 µM); 24.8% (second compound 0.949 µM, first compound 3 µM). Besides, the viability, T/C is 53.3% (second compound 3 µM, first compound 0.00949 µM); 49.2% (second compound 3 µM, first compound 0.03 µM); 47.8% (second compound 3 µM, first compound 0.0949 µM); 38.8% (second compound 3 µM, first compound 0.3 µM); 23.9% (second compound 3 µM, first compound 0.949 µM); 11.6% (second compound 3 µM, first compound 3 µM).

For the compound `NC1CCC(NC2CC2c2ccccc2)CC1` (centres undefined), the viability, T/C was 96.5% and 100% and 109% (compound 0.000316 µM); 102% (2×) and 97.4% (compound 0.001 µM); 90.4% and 95.5% and 101% (compound 0.00316 µM); 92.3% and 96.8% and 93.5% (compound 0.01 µM); 91.6% and 91.8% and 99.5% (compound 0.0316 µM); 92.8% and 94.4% and 97.4% (compound 0.1 µM). In addition, under “curve of compound”, the IC50 was above 100 nM.

For the compound `COc1c(OCCCN2CCOCC2)ccc2c3n(c(=NC(=O)c4cnc(N)nc4)nc12)CCN3`, the viability, T/C is 102% (2×) and 105% (compound 0.00316 µM); 107% and 102% and 98.3% (compound 0.01 µM); 111% and 100% and 68% (compound 0.0316 µM); 95.3% and 105% and 36.9% (compound 0.1 µM); 48.7% and 43.9% and 18.3% (compound 0.316 µM); 28.9% and 26% and 11.2% (compound 1 µM). In addition, for the setting “curve of compound”, the IC50 is 305 nM and 281 nM and 62.4 nM.
